# According to patent US20070010671A1, “Novel quinazoline derivatives and methods of treatment related to the use thereof” (priority 2003, published 2007):
# Where a name gives a salt, the structure may show the parent alone.
# Target: MCH receptor (Homo sapiens, UniProt Q99705)
# Test: High throughput functional screening FLIPR/FDSS6000: inhibition of MCH-evoked intracellular Ca2+ changes
# Assay type: cell-based
# Conditions: antagonist activity, 50 nM of MCH, FLIPR or FDSS; read-out: IC50
# Method in brief: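 Fluo4 fluorescence (Ex 488 nm, Em 530 nm) tracked MCH-evoked [Ca2+]i transients over 290 s by FLIPR or FDSS. Cells carried a constitutively active, non-endogenous receptor version. Compounds were added 3 min before a 50 nM MCH challenge.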
row,IC50 [nM],SMILES
1,0.97,"CN(C)c1nc(N[C@H]2CC[C@@H](NC(=O)COc3ccc(F)c(F)c3)CC2)nc2ccccc12 [Example 909, 2-(3,4-Difluorophenoxy)-N-(cis-4-{[4-(dimethylamino)quinazolin-2-yl]amino}cyclohexyl)-acetamide trifluoroacetate]"

# Same assay, conditions: class by percent of control at 10^-7 M or IC50
row,SMILES,class
1,"COc1ccc(NC(=O)N[C@H]2CC[C@@H](Nc3nc(N(C)C)c4ccccc4n3)CC2)cc1OC1CCCC1 [compound 342, N-[3-(cyclopentyloxy)-4-methoxyphenyl]-N′-(cis-4-{[4-(dimethylamino)quinazolin-2-yl]amino}cyclohexyl)urea]",1 (Class 1: The value of percent of control at 10^−7 M was less than 40% or the value of IC50 was less than 50 nM.)
2,CN(C)c1nc(N[C@H]2CC[C@@H](CNC(=S)Nc3ccc(Cl)cc3C(F)(F)F)CC2)nc2ccccc12 [compound 737],3 (Class 3: The value of percent of control at 10^−7 M was more than 60% or the value of IC50 was more than 200 nM.)
3,"CN(C)c1nc(N[C@H]2CC[C@@H](CNC(=O)Nc3ccc4c(c3)C(F)(F)OC(F)(F)O4)CC2)nc2ccccc12 [compound 755, N-[(cis-4-{[4-(dimethylamino)quinazolin-2-yl]amino}-cyclohexyl)methyl]-N′-(2,2,4,4,-tetrafluoro-4H-1,3-benzodioxin-6-yl)urea]",3 (Class 3: The value of percent of control at 10^−7 M was more than 60% or the value of IC50 was more than 200 nM.)
4,"CN(C)c1nc(N[C@H]2CC[C@@H](CNC(=O)Nc3ccc(Cl)cc3Cl)CC2)nc2ccccc12 [compound 423, N-(2,4-dichlorophenyl)-N′-[(cis-4-{[4-(dimethylamino)quinazolin-2-yl]amino}cyclohexyl)methyl]urea]",2 (Class 2: The value of percent of control at 10^−7 M was from 40% to 60% or the value of IC50 was from 50 nM to 200 nM.)
5,"CN(C)c1nc(N[C@H]2CC[C@@H](CNC(=O)Nc3ccc(I)cc3)CC2)nc2ccccc12 [compound 555, N-[(cis-4-{[4-(dimethylamino)quinazolin-2-yl]amino}cyclohexyl)methyl]-N′-(4-iodophenyl)urea]",2 (Class 2: The value of percent of control at 10^−7 M was from 40% to 60% or the value of IC50 was from 50 nM to 200 nM.)
6,"Cc1cccc(NC(=O)NC[C@H]2CC[C@@H](Nc3nc(N(C)C)c4ccccc4n3)CC2)c1C [compound 428, N-[(cis-4-{[4-(dimethylamino)quinazolin-2-yl]amino}cyclohexyl)methyl]-N′-(2,3-dimethylphenyl)urea]",1 (Class 1: The value of percent of control at 10^−7 M was less than 40% or the value of IC50 was less than 50 nM.)
7,CN(C)c1nc(N[C@H]2CC[C@@H](NC(=S)Nc3ccc(F)c(C(F)(F)F)c3)CC2)nc2ccccc12 [compound 236],3 (Class 3: The value of percent of control at 10^−7 M was more than 60% or the value of IC50 was more than 200 nM.)
8,CN(C)c1nc(N[C@H]2CC[C@@H](CNC(=S)Nc3ccc4c(c3)OCO4)CC2)nc2ccccc12 [compound 791],3 (Class 3: The value of percent of control at 10^−7 M was more than 60% or the value of IC50 was more than 200 nM.)
9,"CN(C)c1nc(N[C@H]2CC[C@@H](NC(=S)NC3CC3)CC2)nc2ccccc12 [compound 288, N-cyclopropyl-N′-(cis-4-{[4-(dimethylamino)quinazolin-2-yl]amino}cyclohexyl)thiourea]",2 (Class 2: The value of percent of control at 10^−7 M was from 40% to 60% or the value of IC50 was from 50 nM to 200 nM.)
10,Cc1cc(NC(=S)N[C@H]2CC[C@@H](Nc3nc(N(C)C)c4ccccc4n3)CC2)ccc1Br [compound 312],3 (Class 3: The value of percent of control at 10^−7 M was more than 60% or the value of IC50 was more than 200 nM.)
11,"CCOc1ccccc1NC(=S)N[C@H]1CC[C@@H](Nc2nc(N(C)C)c3ccccc3n2)CC1 [compound 365, N-(cis-4-{[4-(dimethylamino)quinazolin-2-yl]amino}cyclohexyl)-N′-(2-ethoxyphenyl)thiourea]",1 (Class 1: The value of percent of control at 10^−7 M was less than 40% or the value of IC50 was less than 50 nM.)
12,"CCCCCNC(=O)NC[C@H]1CC[C@@H](Nc2nc(N(C)C)c3ccccc3n2)CC1 [compound 454, N-[(cis-4-{[4-(dimethylamino)quinazolin-2-yl]amino}cyclohexyl)methyl]-N′-pentylurea]",2 (Class 2: The value of percent of control at 10^−7 M was from 40% to 60% or the value of IC50 was from 50 nM to 200 nM.)
13,"COc1ccc(CNC(=S)N[C@H]2CC[C@@H](Nc3nc(N(C)C)c4ccccc4n3)CC2)cc1 [compound 277, N-(cis-4-{[4-(dimethylamino)quinazolin-2-yl]amino}cyclohexyl)-N′-(4-methoxybenzyl)thiourea]",2 (Class 2: The value of percent of control at 10^−7 M was from 40% to 60% or the value of IC50 was from 50 nM to 200 nM.)
14,CN(C)c1nc(N[C@H]2CC[C@@H](NC(=S)NC3CC4C=CC3C4)CC2)nc2ccccc12 (relative stereo) [compound 378],3 (Class 3: The value of percent of control at 10^−7 M was more than 60% or the value of IC50 was more than 200 nM.)
15,"CCCCNC(=O)NC[C@H]1CC[C@@H](Nc2nc(N(C)C)c3ccccc3n2)CC1 [compound 414, N-butyl-N′-[(cis-4-{[4-(dimethylamino)quinazolin-2-yl]amino}cyclohexyl)methyl]urea]",2 (Class 2: The value of percent of control at 10^−7 M was from 40% to 60% or the value of IC50 was from 50 nM to 200 nM.)
16,COC(=O)c1cc(NC(=O)NC[C@H]2CC[C@@H](Nc3nc(N(C)C)c4ccccc4n3)CC2)cc(C(=O)OC)c1 [compound 751],3 (Class 3: The value of percent of control at 10^−7 M was more than 60% or the value of IC50 was more than 200 nM.)
17,CN(C)c1nc(N[C@H]2CC[C@@H](CNC(=S)Nc3cc(F)cc(F)c3)CC2)nc2ccccc12 [compound 648],3 (Class 3: The value of percent of control at 10^−7 M was more than 60% or the value of IC50 was more than 200 nM.)
18,COc1cc(NC(=O)NC[C@H]2CC[C@@H](Nc3nc(N(C)C)c4ccccc4n3)CC2)cc(OC)c1 [compound 525],2 (Class 2: The value of percent of control at 10^−7 M was from 40% to 60% or the value of IC50 was from 50 nM to 200 nM.)

# Same assay, conditions: class by percent of control at 10^-7 M or by IC50; read-out: class
row,IC50 [nM],SMILES
1,50 to 200,CSc1cccc(NC(=O)N[C@H]2CC[C@@H](Nc3nc(N(C)C)c4ccccc4n3)CC2)c1 [compound 118]
2,> 200,CN(C)c1nc(N[C@H]2CC[C@@H](NC(=O)Nc3ccc(SC(F)(F)F)cc3)CC2)nc2ccccc12 [compound 137]
3,> 200,CN(C)c1nc(N[C@H]2CC[C@@H](CNC(=S)Nc3ccc4nsnc4c3)CC2)nc2ccccc12 [compound 816]
4,< 50,"CN(C)c1nc(N[C@H]2CC[C@@H](NC(=O)Nc3c(Br)cc(Br)cc3Br)CC2)nc2ccccc12 [compound 75, N-(cis-4-{[4-(dimethylamino)quinazolin-2-yl]amino}cyclohexyl)-N′-(2,4,6-tribromophenyl)urea]"
5,< 50,"CCCCNC(=O)N[C@H]1CC[C@@H](Nc2nc(N(C)C)c3ccccc3n2)CC1 [compound 13, N-butyl-N′-(cis-4-{[4-(dimethylamino)quinazolin-2-yl]amino}cyclohexyl)urea]"
6,< 50,"CN(C)c1nc(N[C@H]2CC[C@@H](NC(=O)NCc3ccc(F)cc3)CC2)nc2ccccc12 [compound 824, N-(cis-4-{[4-(dimethylamino)quinazolin-2-yl]amino}cyclohexyl)-N′-(4-fluorobenzyl)urea]"
7,< 50,"COc1cc(NC(=O)N[C@H]2CC[C@@H](Nc3nc(N(C)C)c4ccccc4n3)CC2)cc(OC)c1OC [compound 121, N-(cis-4-{[4-(dimethylamino)quinazolin-2-yl]amino}cyclohexyl)-N′-(3,4,5-trimethoxyphenyl)urea]"
8,> 200,CCNC(=O)N[C@H]1CC[C@@H](Nc2nc(N(C)C)c3ccccc3n2)CC1 [compound 32]
9,50 to 200,"Cc1ccc(F)cc1NC(=O)N[C@H]1CC[C@@H](Nc2nc(N(C)C)c3ccccc3n2)CC1 [compound 838, N-(cis-4-{[4-(dimethylamino)quinazolin-2-yl]amino}cyclohexyl)-N′-(5-fluoro-2-methylphenyl)urea]"
10,> 200,C=CCOC(=O)NC[C@H]1CC[C@@H](Nc2nc(N(C)C)c3ccccc3n2)CC1 [compound 877]
11,50 to 200,CN(C)c1nc(N[C@H]2CC[C@@H](NC(=O)OCc3ccccc3)CC2)nc2ccccc12 [compound 858]

# Same assay, conditions: class by percent of control at 10^−7 M or by IC50; read-out: class
row,IC50 [nM],SMILES
1,< 50,"CN(C)c1nc(N[C@H]2CC[C@@H](C(=O)NCc3cc(F)c(F)cc3F)CC2)nc2ccccc12 [Example 1170, cis-4-{[4-(dimethylamino)quinazolin-2-yl]amino}-N-(2,4,5-trifluorobenzyl)cyclohexanecarboxamide]"
2,< 50,"CN(C)c1nc(N[C@H]2CC[C@@H](C(=O)NCc3ccc(F)cc3Cl)CC2)nc2ccccc12 [Example 1182, cis-N-(2-chloro-4-fluorobenzyl)-4-{[4-(dimethylamino)quinazolin-2-yl]amino}cyclohexanecarboxamide]"
3,< 50,"CN(C)c1nc(N[C@H]2CC[C@@H](C(=O)NCc3ccccc3OC(F)F)CC2)nc2ccccc12 [Example 1184, cis-N-[2-(difluoromethoxy)benzyl]-4-{[4-(dimethylamino)quinazolin-2-yl]amino}cyclohexanecarboxamide]"
4,< 50,"CN(C)c1nc(N[C@H]2CC[C@@H](NC(=O)c3ccc(Oc4ccc(F)c(F)c4)nc3)CC2)nc2ccccc12 [Example 1065, 6-(3,4-difluorophenoxy)-N-(cis-4-{[4-(dimethylamino)quinazolin-2-yl]amino}cyclohexyl)nicotinamide]"
5,< 50,"COc1ccc(CNC(=O)[C@H]2CC[C@@H](Nc3nc(N(C)C)c4cc(F)c(F)cc4n3)CC2)cc1 [Example 994, cis-4-{[4-(dimethylamino)-6,7-difluoroquinazolin-2-yl]amino}-N-(4-methoxybenzyl)cyclohexanecarboxamide]"
